± gives the expanded uncertainty stated by the source. Each block holds one molecule with its values, some of them ahead of it.
Conditions: Liquid, Ebulliometric method (Recirculating still)

vapor or sublimation pressure (319.15 K): 101.3 ± 2 kPa
Compound: FC(F)(F)C(Cl)(Cl)Cl [1,1,1-trichloro-2,2,2-trifluoroethane]

Compound: CC(C)=O [acetone]
vapor or sublimation pressure (329.37 K): 101.3 ± 1.8 kPa

vapor or sublimation pressure (351.45 K): 101.3 ± 1.8 kPa
Compound: CCO [ethanol]

Compound: O=S(=O)(Cl)Cl [sulfuryl chloride]
vapor or sublimation pressure (342.6 K): 101.3 ± 2 kPa

Reference: the NIST ThermoML archive (doi:10.1021/je400544h)
